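The compound was tested at five concentrations on cells cultured in 96-well plates, with a 48-hour exposure period. GI50 marks 50% less growth.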 Active and inactive are the calls of the source. Cut-off read from the data, not from the text of the source: active = GI50 up to about 1.1 µM and inactive = higher.
Key:
Test in all cases: NCI-60 cell line screen, 48 h
MDA-MB-435 = tested on: MDA-MB-435
OVCAR-8 = tested on: OVCAR-8
LOX IMVI = tested on: LOX IMVI
HOP-62 = tested on: HOP-62
OVCAR-3 = tested on: OVCAR-3
CCRF-CEM = tested on: CCRF-CEM
Hs-578T = tested on: Hs-578T
NCI/ADR-RES = tested on: NCI/ADR-RES
HCT-116 = tested on: HCT-116
A498 = tested on: A498
SK-MEL-2 = tested on: SK-MEL-2
HT-29 = tested on: HT-29
SW-620 = tested on: SW-620
HOP-92 = tested on: HOP-92
M14 = tested on: M14
MDA-N = tested on: MDA-N
UACC-257 = tested on: UACC-257
SN12C = tested on: SN12C
HCT-15 = tested on: HCT-15
K562 = tested on: K562

SMILES | GI50 (MDA-MB-435) | GI50 (OVCAR-8) | GI50 (LOX IMVI) | GI50 (HOP-62) | GI50 (OVCAR-3) | GI50 (CCRF-CEM) | GI50 (Hs-578T) | GI50 (NCI/ADR-RES) | GI50 (HCT-116) | GI50 (A498) | GI50 (SK-MEL-2) | GI50 (HT-29) | GI50 (SW-620) | GI50 (HOP-92) | GI50 (M14) | GI50 (MDA-N) | GI50 (UACC-257) | GI50 (SN12C) | GI50 (HCT-15) [µM] | GI50 (K562)
O=C(/C=C/c1ccc(Cl)c(Cl)c1)Oc1ccc(/C=C2\CCCCC2=O)cc1 | 78.2 µM (inactive) | > 100 µM (inactive) | > 100 µM (inactive) | > 100 µM (inactive) | > 100 µM (inactive) | > 100 µM (inactive) | > 100 µM (inactive) | > 100 µM (inactive) | > 100 µM (inactive) | > 100 µM (inactive) | > 100 µM (inactive) | > 100 µM (inactive) | > 100 µM (inactive) | > 100 µM (inactive) | > 100 µM (inactive) | > 100 µM (inactive) | > 100 µM (inactive) | > 100 µM (inactive) | > 100 | –
COc1ccc2c(c1)c1nn(CCN(C)C)c3ccc4c(=O)n(CCN(C)C)c(=O)n2c4c13 | < 0.019 µM (active) | < 0.01 µM (active) | 0.0171 µM (active) | < 0.01 µM (active) | 0.018 µM (active) | < 0.01 µM (active) | 0.0463 µM (active) | 0.0148 µM (active) | < 0.01 µM (active) | 0.114 µM (active) | 0.0323 µM (active) | < 0.01 µM (active) | < 0.01 µM (active) | – | 0.105 µM (active) | < 0.0325 µM (active) | 0.208 µM (active) | < 0.0234 µM (active) | < 0.01 | < 0.019 µM (active)
COC(=O)c1c(C)[n+]([O-])c2cc(Cl)c(Cl)cc2[n+]1[O-] | 18.6 µM (inactive) | 16.6 µM (inactive) | 8.65 µM (inactive) | 26 µM (inactive) | 16.6 µM (inactive) | 10.4 µM (inactive) | 21.9 µM (inactive) | 13.9 µM (inactive) | 15.5 µM (inactive) | 10.2 µM (inactive) | 19.4 µM (inactive) | 18.7 µM (inactive) | 18.3 µM (inactive) | – | 24.5 µM (inactive) | 19.5 µM (inactive) | 17.1 µM (inactive) | 18.2 µM (inactive) | 9.59 | 32.2 µM (inactive)
Cc1cc(O)cc2c1c(=O)c1ccccc1n2C | > 100 µM (inactive) | 31.7 µM (inactive) | > 100 µM (inactive) | – | > 100 µM (inactive) | > 100 µM (inactive) | 37.1 µM (inactive) | 68.1 µM (inactive) | 54.7 µM (inactive) | 45.3 µM (inactive) | > 100 µM (inactive) | > 100 µM (inactive) | > 100 µM (inactive) | 39.4 µM (inactive) | > 100 µM (inactive) | > 100 µM (inactive) | > 100 µM (inactive) | > 100 µM (inactive) | > 100 | –
COC(=O)/C=C1/OC(c2ccc(C)cc2C)=CC1=O | 15.7 µM (inactive) | 10 µM (inactive) | 6.17 µM (inactive) | 25.2 µM (inactive) | 26.9 µM (inactive) | 3.42 µM (inactive) | 33.4 µM (inactive) | 19.5 µM (inactive) | 11.5 µM (inactive) | 20.7 µM (inactive) | – | 5.18 µM (inactive) | 2.82 µM (inactive) | 16.6 µM (inactive) | 15.6 µM (inactive) | 15.2 µM (inactive) | – | – | 13.9 | 2.81 µM (inactive)
CCOP(=O)(OCC)C(NC(=O)C(C(F)(F)F)C(F)(F)F)c1ccccc1 (centres undefined) | > 100 µM (inactive) | > 100 µM (inactive) | > 100 µM (inactive) | > 100 µM (inactive) | > 100 µM (inactive) | 36.6 µM (inactive) | > 100 µM (inactive) | > 100 µM (inactive) | > 100 µM (inactive) | – | > 100 µM (inactive) | > 100 µM (inactive) | > 100 µM (inactive) | > 100 µM (inactive) | > 100 µM (inactive) | > 100 µM (inactive) | > 100 µM (inactive) | > 100 µM (inactive) | > 100 | 61.2 µM (inactive)
N=c1oc2c(Cl)cc(Cl)cc2cc1C(=O)Nc1cccc2ccccc12 | 27 µM (inactive) | 3.44 µM (inactive) | 4.7 µM (inactive) | 7.98 µM (inactive) | 4.61 µM (inactive) | 3.57 µM (inactive) | 7.94 µM (inactive) | 4.93 µM (inactive) | 4.79 µM (inactive) | 7.62 µM (inactive) | – | 39.4 µM (inactive) | 3.62 µM (inactive) | 15.3 µM (inactive) | > 44.7 µM (inactive) | 33 µM (inactive) | > 100 µM (inactive) | 3.58 µM (inactive) | 10.3 | 13.3 µM (inactive)
O=C(NO)c1ccc(C(=O)NO)cc1 | 48 µM (inactive) | 30.8 µM (inactive) | > 100 µM (inactive) | 62.2 µM (inactive) | 32.4 µM (inactive) | 31.3 µM (inactive) | > 100 µM (inactive) | 3.21 µM (inactive) | 56.1 µM (inactive) | > 100 µM (inactive) | – | 87.9 µM (inactive) | 80.9 µM (inactive) | 82.2 µM (inactive) | 97.9 µM (inactive) | > 100 µM (inactive) | 56.9 µM (inactive) | > 100 µM (inactive) | > 100 | 38.4 µM (inactive)
CN1CCCCC1CCN1CCCCC1 (centres undefined) | > 100 µM (inactive) | > 100 µM (inactive) | > 100 µM (inactive) | > 100 µM (inactive) | > 100 µM (inactive) | – | > 100 µM (inactive) | > 100 µM (inactive) | > 100 µM (inactive) | > 100 µM (inactive) | > 100 µM (inactive) | > 100 µM (inactive) | > 100 µM (inactive) | > 100 µM (inactive) | > 100 µM (inactive) | > 100 µM (inactive) | > 100 µM (inactive) | > 100 µM (inactive) | > 100 | > 100 µM (inactive)
C#CCCCC(=O)N(C(=O)C[S+]([O-])CC)c1ccccc1 (centres undefined) | > 100 µM (inactive) | > 100 µM (inactive) | > 100 µM (inactive) | > 100 µM (inactive) | > 100 µM (inactive) | > 100 µM (inactive) | > 100 µM (inactive) | > 100 µM (inactive) | > 100 µM (inactive) | – | > 100 µM (inactive) | > 100 µM (inactive) | > 100 µM (inactive) | > 100 µM (inactive) | > 100 µM (inactive) | > 100 µM (inactive) | > 100 µM (inactive) | > 100 µM (inactive) | > 100 | > 100 µM (inactive)
COC(=O)C1=Nc2c(C)nn(-c3ccccc3)c2N=C(c2ccc([N+](=O)[O-])cc2)C1 | > 10 µM (inactive) | > 10 µM (inactive) | > 10 µM (inactive) | > 10 µM (inactive) | > 10 µM (inactive) | > 10 µM (inactive) | > 10 µM (inactive) | > 10 µM (inactive) | > 10 µM (inactive) | – | – | > 10 µM (inactive) | > 10 µM (inactive) | > 10 µM (inactive) | > 10 µM (inactive) | > 10 µM (inactive) | > 10 µM (inactive) | > 10 µM (inactive) | > 10 | > 10 µM (inactive)
CC(C)(C)OC(=O)NC(CCCCNC(=O)OCc1ccccc1)C(=O)NCCNc1ccc(NCCNC(=O)C(CCCCNC(=O)OCc2ccccc2)NC(=O)OC(C)(C)C)c2c1C(=O)c1ccccc1C2=O (centres undefined) | 31.5 µM (inactive) | 8.36 µM (inactive) | > 90.8 µM (inactive) | 23.9 µM (inactive) | > 79.4 µM (inactive) | – | 4.68 µM (inactive) | 19.8 µM (inactive) | 24.5 µM (inactive) | > 100 µM (inactive) | 6.44 µM (inactive) | > 100 µM (inactive) | 70.6 µM (inactive) | > 42.3 µM (inactive) | > 100 µM (inactive) | 26.4 µM (inactive) | > 100 µM (inactive) | > 100 µM (inactive) | > 100 | –
CC(=O)Nc1ccc(S(=O)(=O)[N-]C2C(=O)c3ccccc3C(=O)C2[n+]2ccccc2)cc1 (centres undefined) | 4.09 µM (inactive) | 17.6 µM (inactive) | 63.4 µM (inactive) | 17.9 µM (inactive) | 16.4 µM (inactive) | 15.1 µM (inactive) | 23.1 µM (inactive) | 17.1 µM (inactive) | > 100 µM (inactive) | – | 12.5 µM (inactive) | 45.1 µM (inactive) | 17.1 µM (inactive) | 17.4 µM (inactive) | 14.1 µM (inactive) | 17.2 µM (inactive) | 16.1 µM (inactive) | 99.3 µM (inactive) | 28.3 | 23.3 µM (inactive)
Cc1cc(S(=O)(=O)O)ccc1/N=N/c1ccc(/N=N/c2c(O)ccc3ccccc23)c(C)c1 | 37.9 µM (inactive) | 49.8 µM (inactive) | 26.9 µM (inactive) | > 100 µM (inactive) | 39.4 µM (inactive) | 18.1 µM (inactive) | > 100 µM (inactive) | > 100 µM (inactive) | 34.2 µM (inactive) | – | > 100 µM (inactive) | 70.3 µM (inactive) | 42.3 µM (inactive) | 46.7 µM (inactive) | > 100 µM (inactive) | 50.1 µM (inactive) | > 100 µM (inactive) | 89.7 µM (inactive) | 32.1 | > 100 µM (inactive)
Clc1ccccc1C(c1ccccc1)(c1ccccc1)n1ccnc1 [CLOTRIMAZOLE] | 12.5 µM (inactive) | 11 µM (inactive) | – | 11.4 µM (inactive) | 5.66 µM (inactive) | 5.93 µM (inactive) | 15.1 µM (inactive) | 9.25 µM (inactive) | 7.82 µM (inactive) | 20.6 µM (inactive) | 12.1 µM (inactive) | 9.25 µM (inactive) | 12 µM (inactive) | 11.8 µM (inactive) | 13.5 µM (inactive) | 11.9 µM (inactive) | 10.8 µM (inactive) | – | 8.67 | 5.97 µM (inactive)

From ChEMBL document CHEMBL1201862, “PubChem BioAssay data set” (2004)
